Experimental data as given in US11207320B2, “Compositions and methods for cancer expressing PDE3A or SLFN12” (The Broad Institute, Inc., priority 2015, dated 2021).

What was measured:
A549 cells = assay: Compound library screening and dose-response retest, cell viability (ATP content, CellTiter-Glo); format: cell-based; settings: A549, 48 hours
Procedure: (§1) To identify anti-cancer compounds with cell-selective cytotoxic activity, an unbiased chemical screen was performed in two lung adenocarcinoma cell lines, A549 and NCI-H1734, both of which harbor oncogenic KRAS mutations and truncating STK11 mutations, and which were TP53 wild type and mutant (R273L), respectively. 1,924 compounds were screened from the Molecular Libraries Small-Molecule Repository validation set in the A549 and NCI-H1734 cell lines at a single concentration of 10 μM in 384-well format in duplicate. As a proxy for cellular viability, ATP content was measured after 48 hours of compound treatment.
(§2) 1500 NCI-H1734 or 1000 A549 cells were plated in a 384-well plate in 40 μl of RPMI supplemented with 10% Fetal Bovine Serum and 1% Pen/Strep. 24 hours after plating, a compound-library of 1924 small molecules was added at a concentration of 10 μM. Staurosporine was used a positive control for cytotoxicity at a concentration of 10 μM, and DMSO was used a negative control at a concentration of 1%. All compounds were incubated for 48 hours with indicated small molecules. […] Cell viability was assessed by adding 40 μl of a 25% CELLTITERGLO® (Promega) in PBS with a THERMO COMBI™ or multichannel-pipette and incubated for 10 minutes. The luminescence signal was read using a Perkin-Elmer EnVision. Viability percentage was calculated by normalizing to DMSO controls.

NCI-H1734 cells = assay: as above; format: cell-based; settings: NCI-H1734, 48 hours
Procedure: as §1, §2

HeLa cells [1] = assay: Knockdown of SLFN12 expression using shRNA and testing for drug sensitivity; format: cell-based; settings: 72 hours
Excerpt: FIG. 15A is a scatterplot showing mRNA robust multichip average (RMA) expression values for PDE3A and SLFN12 from the Cancer Cell Line Encyclopedia (CCLE) database (a detailed genetic characterization of a large panel of human cancer cell lines) with sensitive cell lines indicated (Barretina et al., Nature 483, 603-607, 2012). 21 sensitive cell lines were binned in three groups of 7 based on area under the curve (AUC) rank. FIG. 15B is a bar graph showing results of a Fisher's exact test on DNMDP sensitivity of cell lines with high expression of both SLFN12 and PDE3A (RMA Log 2>5) compared to other cell lines. The top half of the bar on the right indicates melanoma cell lines. FIG. 15C is a scatterplot showing mRNA RPKM+1 expression values for PDE3A and SLFN12 from RNA sequencing data. FIG. 15D is a bar graph showing qPCR expression changes of SLFN12 in HeLa cells transduced with shSLFN12 normalized to GAPDH. FIG. 15E is a plot showing viability of HeLa cells transduced with indicated shRNA reagents and treated with indicated concentrations of DNMDP for 72 hours.
Constructs expressing shRNAs targeting SLFN12, or the control vector, were packaged into lentiviruses and delivered into HeLa cells by viral transduction. […] SLFN12-targeting shRNAs were used, all of which were obtained from the TRC (CloneIDs: TRCN0000152141 and TRCN0000153520). […]

HeLa cells [2] = assay: DNMDP cytotoxicity after targeting PDE3A locus using CRISPR; format: cell-based; settings: HeLa infected with Cas9 and sgRNAs against PDE3A
Procedure: FIG. 11A is a Western blot. HeLa cells were infected with Cas9 and indicated guide RNAs (sgRNA) against PDE3A. Western blots were probed for PDE3A at indicated time points. FIG. 11B is a bar graph showing percent rescue of HeLa cells that were infected with indicated sgRNAs for two weeks and treated with 1 μM of 6-(4-(diethylamino)-3-nitrophenyl)-5-methyl-4,5-dihydropyridazin-3(2H)-one (DNMDP) for 48 hours. Percent rescue was normalized to the Cas9-only control. FIG. 11C is a plot showing viability of cells infected with indicated sgRNAs and treated with various concentrations of 6-(4-(diethylamino)-3-nitrophenyl)-5-methyl-4,5-dihydropyridazin-3(2H)-one (DNMDP).
Based on the observations that DNMDP-sensitive cells expressed high levels of PDE3A, and that DNMDP competed with non-cytotoxic inhibitors for PDE3A binding, it was hypothesized that DNMDP mediated its cytotoxic phenotype through the interaction with PDE3A and that PDE3A abundance was a direct cellular determinant of DNMDP sensitivity. To validate this hypothesis, the effect of reducing levels of PDE3A on the response to DNMDP was tested. […] In an independent approach using an siRNA smart-pool containing four different siRNAs targeting PDE3A, PDE3A expression was reduced in HeLa cell line with a maximum efficiency of 70% between 24 and 72 hours after transfection. […]

HeLa cells [3] = assay: PARP-cleavage immunoblotting; format: cell-based; settings: 36 hours
Procedure: HeLa cells were treated with indicated concentration of DNMDP and staurosporine for 36 hours. HeLa cells were lysed and processed as described in Linker-affinity purification of molecular target of DNMDP and immunoblotting. Membranes were incubated with an antibody against PARP (1:1000, Cell Signaling #9532) and actin and subsequently imaged as described in Linker-affinity purification of molecular target of DNMDP and immunoblotting.

PDE3 = settings: Ruppert et al., Life Sci. 31, 2037-2043, 1982; cited from earlier work

Structure (SMILES)	effect on cell viability (A549 cells)	toxicity in dose-response analysis (NCI-H1734 cells)	sensitivity after reduction of SLFN12 expression (shRNA) (HeLa cells [1])	rescue of toxicity by PDE3A sgRNA2 and sgRNA3 (HeLa cells [2])	PARP cleavage (HeLa cells [3])	IC50 (PDE3)
CCN(CC)c1ccc(C2=NNC(=O)CC2C)cc1[N+](=O)[O-] (stereo not drawn) [DNMDP, 6-(4-(diethylamino)-3-nitrophenyl)-5-methyl-4,5-dihydropyridazin-3(2H)-one]	did not affect cell viability	specifically toxic	decreased sensitivity	significant rescue of toxicity	detected	
COc1cc2c(cc1OC)-c1c/c(=N\c3c(C)cc(C)cc3C)n(C)c(=O)n1CC2 [trequinsin, 9,10-dimethoxy-3-methyl-2-(2,4,6-trimethylphenyl)imino-6,7-dihydropyrimido[6,1-a]isoquinolin-4-one]						0.25 nM
